The values that follow come from ChEMBL document CHEMBL3797129, “Dysiherbols A-C and Dysideanone E, Cytotoxic and NF-κB Inhibitory Tetracyclic Meroterpenes from a Dysidea sp. Marine Sponge” (J Nat Prod, 2016).

Test [1] is described as follows: Inhibition of TNF alpha-induced NF-kappaB (unknown origin) activation in HEK293 cells after 6 hrs by luciferase reporter gene assay. Format: cell-based. The conditions noted are these: Homo sapiens, HEK293, 6 h. In general terms: Reporter assays use an easily measured gene product as a stand-in for the process of interest.
Test [2] in a line: Cytotoxicity against human NCI-H929 cells after 48 hrs by MTS assay. The conditions noted are these: NCI-H929, 48 h. It counts as functional, cell-based.

pIC50: −log10 of the molar value. Bounds are passed on as bounds.

What is called pIC50 is the negative decadic logarithm of the IC50, by convention in mol/L. A low value points to a high IC50. On to `CC1=CCC[C@H]2[C@](C)(Cc3cc(O)ccc3O)[C@@H](C)CC[C@]12C` [AVAROL], for which the pIC50 in test [1] was less than 5.00; in test [2], 5.48.
In the same order, the values of `C[C@@H]1CC[C@]2(C)[C@@]3(CC[C@H](O)[C@]2(C)O)c2c(O)ccc(O)c2C[C@@]13C` are 5.23 and 4.82.
The like results for `C[C@@H]1CC[C@]2(C)[C@@]3(CCC[C@]2(C)O)c2c(O)ccc(O)c2C[C@@]13C` were, in that order, 6.31 and 6.24.
The like results for `COc1ccc([C@@]23Oc4cc(OC)cc(OC)c4[C@]2(O)[C@H](O)[C@H](C(=O)N(C)C)[C@H]3c2ccccc2)cc1` [ROCAGLAMIDE] were, in that order, 5.59 and 5.41.
As to `C=C1CC[C@H]2[C@H]3[C@](C)(CC4=CC(=O)C=C[C@@]42O)[C@@H](C)CC[C@]13C`, the figures for the pIC50 in test [1] and in test [2] were less than 5.00 and 4.60, respectively.
Take `C[C@@H]1CC[C@]2(C)[C@@]3(CCC(=O)[C@]2(C)O)c2c(O)ccc(O)c2C[C@@]13C`: the pIC50 in test [1] is 5.19; in test [2], 4.92.
